Values quoted from earlier work in US6689595B1, “Crystallization and structure determination of Staphylococcus aureus thymidylate kinase” (Pharmacia & Upjohn Company, priority 1999, dated 2004).
pKd: −log10 of the molar value.

Biological target: E. coli TMK (Escherichia coli, UniProt P0A720)
Settings: from A. Lavie et al. 1998

Sequence of E. coli TMK (P0A720 whole entry): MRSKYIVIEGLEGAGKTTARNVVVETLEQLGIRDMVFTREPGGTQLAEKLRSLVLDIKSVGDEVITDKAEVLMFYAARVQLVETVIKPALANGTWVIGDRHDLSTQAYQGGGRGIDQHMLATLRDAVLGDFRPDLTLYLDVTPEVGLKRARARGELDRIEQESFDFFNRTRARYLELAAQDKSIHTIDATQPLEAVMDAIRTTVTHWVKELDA

Question: With `Cc1cn([C@H]2C[C@H](O)[C@@H](COP(=O)(O)OP(=O)(O)OP(=O)(O)OP(=O)(O)OP(=O)(O)OC[C@H]3O[C@@H](n4cnc5c(N)ncnc54)[C@H](O)[C@@H]3O)O2)c(=O)[nH]c1=O` [AP5T] as the molecule, how does the pKd read?
Answer: 7.70
